Assay: xn = mol fraction of the nth substance listed
Settings: 101 kPa, Liquid, Capillary tube (Ostwald / Ubbelohde) method

O [water] + CCN(CC)CC
x2 = 0
Settings | viscosity [mPa·s]
283.15 K | 1.306
286.15 K | 1.206
288.15 K | 1.144
290.15 K | 1.085
291.15 K | 1.058
291.35 K | 1.053

CCN(CC)CC [triethylamine] + O
viscosity [mPa·s]
Settings | x1 = 0.019 | x1 = 0.042 | x1 = 0.077 | x1 = 0.106 | x1 = 0.151 | x1 = 0.21 | x1 = 0.293 | x1 = 0.415 | x1 = 0.615 | x1 = 1
283.15 K | 2.52 | 4.075 | 5.547 | 6.629 | 6.651 | 5.635 | 4.242 | 2.821 | 1.84 | 0.4275
286.15 K | 2.211 | 3.512 | 4.761 | 5.476 | 5.497 | 4.801 | 3.679 | 2.511 | 1.531 | 0.414
288.15 K | 2.033 | 3.199 | 4.242 | 4.748 | 4.769 | 4.302 | 3.366 | 2.333 | 1.354 | 0.4051
290.15 K | 1.875 | 2.948 | 3.764 | 4.07 | 4.092 | 3.85 | 3.115 | 2.175 | 1.195 | 0.3961
291.15 K | 1.804 | 2.846 | 3.53 | 3.751 | 3.773 | 3.644 | 3.013 | 2.104 | 1.124 | 0.3917
291.35 K | 1.792 | 2.831 | 3.482 | 3.677 | 3.699 | 3.611 | 2.998 | 2.093 | 1.113 | 0.391

— the NIST ThermoML archive (doi:10.1016/j.fluid.2009.01.004)
